Test results published in patent US6395762B1, “Phenyl amino squarate and thiadiazole dioxide beta-3 adrenergic receptor agonists” (American Home Products Corporation, priority 2000, dated 2002).
Counter-ions that a name gives are not always drawn. Like-named read-outs stand apart in the source and are kept apart here.

Tests used:
human β3-AR = molecular target: T1, human β3-AR (Homo sapiens, UniProt P13945); experiment: cAMP accumulation (SPA) in CHO cells transfected with human β3-AR; format: cell-based; settings: for IA(β3): maximal response of compound relative to maximal response of isoproterenol at 10^−5 M
T1 construct: Full-length β3-AR clones (402 amino acids) containing the last 6 amino acids of hβ3-AR; expressed in transfected cells; host or cells: CHO (Chinese hamster ovary) cells
Experimental: The ability of the compounds of this invention to treat or inhibit disorders related to insulin resistance or hyperglycemia was confirmed with representative compounds of this invention in the following standard pharmacological test procedures, which measured the binding selectivity of the β1-, β2-, and β3-AR. Binding to the receptors was measured in Chinese Hamster ovary (CHO) cells that were transfected with β1-, β2-, and β3-AR's. The following briefly summarizes the procedures used and results obtained.
Cloning of Human β3-AR Genomic DNA: cDNA was constructed by ligating four polymerase chain reaction (PCR) products using the following primers: an ATG-Narl fragment, sense primer 5′-[…]3′ and anti-sense primer 5′[…]3′; a Narl-Accl fragment, 5′[…]3′ as sense and 5′[…]3′ as anti-sense primer; an Accli—Styl fragment, sense primer 5′[…]3′ and anti-sense primer 5′[…]3′ and a Styl-TAG fragment, with sense primer 5′ […]3′ and anti-sense primer 5′ […]3′ . The corresponding primer sequences are described in Mantzoros, C. S., et.al., Diabetes, 1996, 45, 909-914. The four fragments are ligated into a pUC 18 plasmid (Gibco-BRL) and sequenced. Full-length β3-AR clones (402 amino acids) containing the last 6 amino acids of hβ3-AR are prepared with the β3-βARpcDNA3 from ATTC.
Binding Procedure: Clones expressing receptor levels of 70 to 110 fmoles/mg protein were used in the test procedures. CHO cells were grown in 24-well tissue culture plates in Dulbecco's Modified Eagle Media with 10% fetal bovine serum, MEM non-essential amino acids, Penicillin—Streptomycin and Geneticin. On the day of test procedure, growth medium was replaced with preincubation media (Dulbecco's Modified Eagle Media) and incubated for 30 minutes at 37° C. Pre-incubation medium was replaced with 0.2 ml treatment medium containing DMEM media containing 250 μM IBMX (isobutyl-1-methylxantine) plus 1 mM ascorbic acid with test compound dissolved in DMSO. Test compounds were assayed over a concentration range of 10^−9 M to 10^−5 M for β3-AR transfected cells and 10^−8 to 10^−4 M for β1-AR and β2-AR transfected cells. Isoproterenol (10^−5 M) was used as an internal standard for comparison of activity. Cells were incubated at 37° C. on a rocker for 30 min with the β3-AR transfected cells and 15 min with β1-AR and β2-AR transfected cells. Incubation was stopped by the addition of 0.2N HCl and the acid was neutralized with 2.5N NaOH. The plates, containing the cells and neutralized media, were stored at −20° C. until ready to test for cAMP using the SPA test kit (Amersham).
Data Analysis and Results: Data collected from the SPA test procedure were analyzed as percent of the maximal isoproterenol response at 10^−5 M. Activity curves were plotted using the SAS statistical and graphics software.

[1] = CHO cells transfected with human β3-AR
[2] = CHO cells transfected with human β3-AR, cAMP by SPA, 30 min at 37° C., 10^−9 M to 10^−5 M, read-out: EC50(β3)

T1 sequence (P13945 whole entry): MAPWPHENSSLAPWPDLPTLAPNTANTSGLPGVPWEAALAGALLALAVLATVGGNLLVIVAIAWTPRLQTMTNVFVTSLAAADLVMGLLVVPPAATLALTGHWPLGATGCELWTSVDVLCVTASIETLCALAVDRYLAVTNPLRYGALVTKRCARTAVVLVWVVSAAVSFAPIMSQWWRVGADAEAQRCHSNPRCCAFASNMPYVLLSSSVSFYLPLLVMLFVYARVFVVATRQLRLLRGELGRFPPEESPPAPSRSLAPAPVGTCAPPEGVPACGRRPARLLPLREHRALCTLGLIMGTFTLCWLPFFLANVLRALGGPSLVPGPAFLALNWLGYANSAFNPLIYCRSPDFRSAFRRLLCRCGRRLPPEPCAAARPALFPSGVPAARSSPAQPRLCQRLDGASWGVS

| melting point | IA(β3) (human β3-AR; [1]) | EC50 (human β3-AR; [2]) [nM] | Structure (SMILES) | EC50 (human β3-AR) [nM] |
| --- | --- | --- | --- | --- |
| 173 to 175 °C | 0.71 | 87 | CCCCCCCCNc1c(Nc2ccc(CC(C)NC[C@H](O)c3cccc(Cl)c3)cc2)c(=O)c1=O (stereo partly drawn) [Compound 10, 3-(4-{2-[(2R)-2-(3-Chloro-phenyl)-2-hydroxy-ethylamino]-propyl}-phenylamino)-4-octylamino-cyclobut-3-ene-1 2-dione] | – |
| 203.5 to 206 °C | 1.45 | 11 | CCCCCCCCNC1=NS(=O)(=O)N=C1Nc1ccc(CC(C)NC[C@H](O)COc2ccc(O)cc2)cc1 (stereo partly drawn) [Compound 12, 4-((2S)-2-Hydroxy-3-{1-methyl-2-[4-(4-octylamino-1,1-dioxo-1H-1-.lambda(6).-[1,2,5]thiadiazol-3-ylamino)-phenyl]-1-ethylamino}-propoxy)-phenol] | – |
| 130 to 132 °C | 0.97 | 86 | CCCCCCCCCCNc1c(Nc2ccc(CC(C)NC[C@H](O)COc3ccc(O)cc3)cc2)c(=O)c1=O (some centres unmarked) [Compound 15] | – |
| 125 to 131 °C | 0.47 | 233 | CCCCCCCCNc1c(Nc2ccc(CC(C)NC[C@H](O)COc3cccc4[nH]c5ccccc5c34)cc2)c(=O)c1=O (stereo partly drawn) [Compound 16, 3-(4-{2-[(2S)-3-(9H-Carbazol-4-yloxy)-2-hydroxy-propylamino]-propyl}-phenylamino)-4-octylamino-cyclobut-3-ene-1,2-dione] | – |
| 225 °C | 0.31 | – | CCCCCCCCCCNc1c(Nc2ccc(CCCNC[C@H](O)COc3cccc4[nH]c5ccccc5c34)cc2)c(=O)c1=O [Compound 17, 3-(4-{[(2S)-3-(9H-Carbazol-4-yloxy)-2-hydroxy-propylamino]-propyl}-phenylamino)-4-decylamino-cyclobut-3-ene-1,2-dione] | – |
| 121 to 124 °C | 0.64 | 64 | CCCCCCCCNC1=NS(=O)(=O)N=C1Nc1ccc(CC(C)NC[C@H](O)COc2cccc3[nH]c4ccccc4c23)cc1 (stereo partly drawn) [Compound 21, (2S)-1-(9H-Carbazol-4-yloxy)-3-{1-methyl-2-[4-(4-octylamino-1,1-dioxo-1H-1(lambda(6))-[1,2,5]thiadiazol-3-ylamino)-phenyl]-ethylamino}-propan-2-ol] | – |
| 77 to 82 °C | 0.39 | – | CCCCCCCCNC1=NS(=O)(=O)N=C1Nc1ccc(CC(C)NC[C@H](O)COc2ccccc2)cc1 (stereo partly drawn) [Compound 22, (2S)-1-{[1-methyl-2-(4-{[4-(octylamino)-1,1-dioxido-1,2,5-thiadiazol-3-yl]amino}phenyl)ethyl]amino}-3-phenoxypropan-2-ol] | – |
| 144 to 155 °C | 0.64 | 1360 | CCCCCCCCCCNc1c(Nc2ccc(CC(C)NC[C@H](O)COc3ccccc3)cc2)c(=O)c1=O (some centres unmarked) [Compound 23] | – |
| 146 to 155 °C | 0.41 | 81 | CCCCCCCCNc1c(Nc2ccc(CC(C)NC[C@H](O)COc3ccccc3)cc2)c(=O)c1=O (stereo partly drawn) [Compound 24, 3-{4-[2-((2S)-2-Hydroxy-3-phenoxy-propylamino)-propyl]-phenylamino}-4-octylamino-cyclobut-3-ene-1,2-dione] | – |

Further lines, the molecule ahead of its results:

| Structure (SMILES) | melting point | IA(β3) (human β3-AR; [1]) | EC50 (human β3-AR; [2]) [nM] | EC50 (human β3-AR) [nM] |
| --- | --- | --- | --- | --- |
| CC(Cc1ccc(NC2=NS(=O)(=O)N=C2NCC2(c3ccccc3)CCCC2)cc1)NC[C@H](O)COc1ccc(O)cc1 (stereo partly drawn) (as salt: HCl) [Compound 31, 4-{(2S)-3-[2-(4-{1,1-Dioxo-4-[(1-phenyl-cyclopentylmethyl)-amino]-1H-1(lambda(6))-[1,2,5]thiadiazol-3-ylamino}-phenyl)-1-methyl-ethylamino]-2-hydroxy-propoxy}-phenol] | 162 to 165 °C | – | – | – |
| CCCCNc1c(Nc2ccc(CC(C)NC[C@H](O)c3cccc(Cl)c3)cc2)c(=O)c1=O (stereo partly drawn) [Compound 1, 3-Butylamino-4-(4-{2-[(2R)-2-(3-chloro-phenyl)-2-hydroxy-ethylamino]-propyl}-phenylamino)-cyclobut-3-ene-1,2-dione] | 176 to 179 °C | 0.16 | – | 115 |
| CCCCCCCCNC1=NS(=O)(=O)N=C1Nc1cccc(CC(C)NCC(O)c2cccc(Cl)c2)c1 [Compound 2, (1R)-1-(3-Chloro-phenyl)-2-{1-methyl-2-[3-(4-octylamino-1,1-dioxo-1H-1-.lambda(6).-[1,2,5]thiadiazol-3-ylamino)-phenyl-]-ethylamino}-ethanol] | 90 to 96 °C | 0.42 | 198 | – |
| CCCCCCCCNC1=NS(=O)(=O)N=C1Nc1ccc(CCNC[C@H](O)COc2ccc(O)cc2)cc1 [Compound 5, 4-((2S)-2-Hydroxy-3-{2-[4-(4-octylamino-1,1-dioxo-1H-1.lambda(6).-[1,2,5]thiadiazol-3-ylamino)-phenyl]-ethylamino}-propoxy)-phenol] | 98 °C (dec.) | 0.75 | 18 | – |
| CCCCCCCCNC1=NS(=O)(=O)N=C1Nc1ccc(CC(C)NC[C@H](O)c2ccc(O)c(NS(C)(=O)=O)c2)cc1 (some centres unmarked) [Compound 6] | 120 °C (dec.) | 1.26 | 2 | – |
| CCCCCCNC(=O)Nc1ccc(C2(CNC3=NS(=O)(=O)N=C3Nc3ccc(CC(C)(C)NC[C@H](O)COc4ccc(O)cc4)cc3)CCCC2)cc1 [Compound 8, 1-Hexyl-3-[4-(1-{[4-(4-{2-[(2S)-2-hydroxy-3-(4-hydroxy-phenoxy)-propylamino]-2-methyl-propyl}-phenylamino)-1,1-dioxo-1H-1.lambda(6).-{1,2,5]thiadiazol-3-ylamino]-methyl}-cyclopentyl)-phenyl]-urea] | 154.5 to 158.5 °C | 0.91 | 10 | – |
| CCCCCCNC1=NS(=O)(=O)N=C1Nc1cccc(CC(C)NC[C@H](O)c2cccc(Cl)c2)c1 (stereo partly drawn) [Compound 9, (1R)-1-(3-Chloro-phenyl)-2-{2-[3-(4-hexylamino-1,1-dioxo-1H-1-.lambda(6) .-[1,2,5]thiadiazol-3-ylamino)-phenyl]-1-methyl-ethylamino}-ethanol] | 90 to 96 °C | 0.74 | 204 | – |
| CCCCCCCCCCNC1=NS(=O)(=O)N=C1Nc1ccc(CC(C)NC[C@H](O)c2ccc(O)c(NS(C)(=O)=O)c2)cc1 (stereo partly drawn) [Compound 27, N-[5-((1R)-2-{2-[4-(4-Decylamino-1,1-dioxo-1H-1(lambda(6))-[1 2,5]thiadiazol-3-ylamino)-phenyl]-1-methyl-ethylamino}-1-hydroxy-ethyl)-2-hydroxy-phenyl]-methanesulfonamide] | 120 °C (dec.) | 1.27 | 9 | – |
| CC(C)(Cc1ccc(NC2=NS(=O)(=O)N=C2NCC(c2ccccc2)c2ccccc2)cc1)NC[C@H](O)COc1ccc(OCc2ccccc2)cc1 [Compound 28] | 222.5 to 224.5 °C (dec.) | 0.83 | 1420 | – |
| CC(Cc1ccc(NC2=NS(=O)(=O)N=C2NCC2(c3ccccc3)CCCC2)cc1)NC[C@H](O)COc1ccc(OCc2ccccc2)cc1 (stereo partly drawn) [Compound 30, (2S)-1-(4-Benzyloxy-phenoxy)-3-[2-(4-{1 ,-dioxo-4-[(1-phenyl-cyclopentylmethyl)-amino]-1H-1(lambda(6))-[1,2,5]thiadiazol-3-ylamino}-phenyl)-1-methyl-ethylamino]-propan-2-ol] | 103 to 105 °C | 0.93 | 116 | – |
| CCCCCCCCNC1=NS(=O)(=O)N=C1Nc1ccc(CC(C)NC[C@H](O)COc2ccc3c(c2)OCO3)cc1 (stereo partly drawn) [Compound 35, (2S)-1-(1,3-Benzodioxol-5-yloxy)-3-{1-methyl-2-[4-(4-octylamino-1,1-dioxo-1H-1.lambda(6).-[1,2,5]thiadiazol-3-ylamino)-phenyl]-ethylamino}-propan-2-ol] | 81 to 86 °C | 0.51 | 125 | – |
